Consider four molecules from patent US20070208011A1, “Supersaturated Benzodiazepine Solutions and Their Delivery” (priority 2005, published 2007).

Read-outs that look alike come from different tables or passages of the source.

The conditions of data set [1]: rectal, published data (Cloyd et al, Epilepsia 1998); cited from earlier work.
The nature of data set [2]: Comparison of intranasal with published rectal diazepam concentration-time course.
The nature of data set [3]: Diffusion studies through silicone membranes (Franz diffusion cell). The note with it: for Steady State Flux / Time Lag / Transference: 75 μm silicone membrane.
For data set [4] the following is noted: cited from earlier work.
A short description of data set [5]: DZP permeation through blank filter. Conditions: S from 1 to 6, 30/70 GF/AB vehicle, blank filters.
A short description of data set [6]: Nasal administration of diazepam and midazolam preparations in two healthy volunteers. Conditions: for Nasal Discomfort / Nasal Discomfort (maximum): subject self-rating, IN 5 mg dose, n = 2. How it is done:
Approximately 0.5 ml (2.5 mg) was dripped into each nostril over a period of 30 seconds.

A further data set in a line: clinical. Conditions: human, plasma, inhaled or intranasal, 5 mg.
For data set [7] the following is noted: cited from earlier work. The source holds these as a separate data set.
The conditions of data set [8]: in vivo; cited from earlier work.
The next data set concerns MDCKII-WT cells. How it is done:
(§1) Maden Darby Canine Kidney II wild type (MDCKII-WT) cells were seeded at 43,000 cells/cm^2 on six-well polyester membrane inserts (Transwell®) with a pore size of 0.4 μm. Cells were maintained in Dulbecco's modified Eagle's medium supplemented with 10% fetal bovine serum and 1% penicillin and streptomycin at 37° C. in a humidified incubator with 5% CO2. Media were changed every other day, and cell monolayers were cultured for 4 days before use.
Viability of MDCKII-WT cells was measured by incubating the cells in suspension for 30, 60, and 120 min in various GF/buffer compositions at 37° C. Trypan blue dye was then added into the cell suspension, and incubated for 10 min. A sample was drawn from the suspension and spread on a hemocytometer, and counts of live (transparent) and dead (blue) cells were made.

Data set [9] has as its system MDCKII-WT cell monolayer. Conditions: GF 0 to 50 vol % in upstream vehicle.
Data set [10] deals with MDCKII-WT cell monolayer.
The subject of data set [11] is MDCKII-WT cell monolayer. The note with it: 0-50% GF with assay buffer, over 30 min. The method, then:
as §1

A short description of data set [12]: Lipid-solubility (octanol/water ratio) of benzodiazepines. The note with it: from Table 1.
In another data set the test system is patients with SE. The note with it: intravenous, given within 30 minutes of the onset of SE; cited from earlier work.
Setting [13] is: buccal, 5 mg commercial parenteral MDZ, 8 healthy volunteers.
Where [14] appears, read: human, blood, other: intranasal, 5 mg.

As for `CN1C(=O)CN=C(c2ccccc2)c2cc(Cl)ccc21` [DZP, diazepam], the “time to maximum concentration” value was 45 min in data set [1] and 28 min in [2] (nasal, 5 mg). In addition, the peak concentration in data set [2] (rectally, published data adjusted from 15 mg to 5 mg assuming linear pharmacokinetics) was determined as 128 ng/mL. In addition, the “steady state flux as a function of degree of saturation S” value in [3] (S=0.5-6.25, 50:50 GF/water, silicone membrane) is reported as “increased nearly linearly with increasing degree of saturation”; in data set [5], “increased linearly with increasing degree of saturation”. The “Steady State Flux” value in [3] (S=1, 30% GF) is 0.823 ± 0.030 μg/(cm^2 · min); in data set [3] (S=1, 40% GF), 0.826 ± 0.019 μg/(cm^2 · min); in data set [3] (S=1, 50% GF), 0.824 ± 0.011 μg/(cm^2 · min); in [3] (S=3, 30% GF) it was 2.309 ± 0.070 μg/(cm^2 · min); in data set [3] (S=3, 40% GF), 2.310 ± 0.055 μg/(cm^2 · min); in data set [3] (S=3, 50% GF) it was 2.321 ± 0.095 μg/(cm^2 · min). Also, the “Time Lag” value in [3] (S=1, 30% GF) is reported as 1.876 ± 0.165 min; in [3] (S=1, 40% GF) it was 1.793 ± 0.020 min; in [3] (S=1, 50% GF) it was 1.842 ± 0.119 min; in data set [3] (S=3, 30% GF), 1.806 ± 0.135 min; in data set [3] (S=3, 40% GF) it was 1.787 ± 0.091 min; in data set [3] (S=3, 50% GF), 1.755 ± 0.134 min. The Transference in data set [3] (S=1, 30% GF) is 0.823 ± 0.030 μg/(cm^2 · min); in [3] (S=1, 40% GF), 0.826 ± 0.019 μg/(cm^2 · min); in data set [3] (S=1, 50% GF), 0.824 ± 0.011 μg/(cm^2 · min); in [3] (S=3, 30% GF), 0.770 ± 0.023 μg/(cm^2 · min); in data set [3] (S=3, 40% GF) it was 0.770 ± 0.018 μg/(cm^2 · min); in data set [3] (S=3, 50% GF), 0.774 ± 0.032 μg/(cm^2 · min). Further, the “time to peak concentrations” value in data set [4] (rectal, adults) is 15 to 45 min; in [4] (rectal, children), 5 to 10 min. In addition, the “Nasal Discomfort” value in data set [6] is reported as 1.5. The “Nasal Discomfort (maximum)” value in data set [6] is given as 6.8.
Consider `Cc1ncc2n1-c1ccc(Cl)cc1C(c1ccccc1F)=NC2` [MDZ, midazolam], for which the “time to pharmacological effect comparable to IV diazepam” value in data set [4] (IM injection) is recorded as at most 15 minutes. Also, in data set [4] (IM), the “time to peak serum concentrations” value is 20 to 30 min. In addition, in data set [4] (setting [13]), the average bioavailability was 75% and the “time to peak serum concentrations” value is 15 to 90 min. Also, the bioavailability in [4] (rectal) is on record as 15-30 % of a dose. Moreover, in “clinical”, the peak level (Cmax) was 64.6 ng/mL and the bioavailability stood at 97.9%. In addition, in data set [7] (at pH = 3), the “Lipid-solubility (Octanol/Water Ratio)” value is reported as “at pH = 3: 34”. Moreover, in data set [7] (at pH = 7.5), the “Lipid-solubility (Octanol/Water Ratio)” value is reported as “at pH = 7.5: 475”. In addition, in data set [8], the “Elimination T½” value was 30 to 240 min and the “First-pass Effect” value is “High”. Also, the “nasal discomfort (in words)” value in [6] (IN commercial formulations: DZP solvents 40% propylene glycol and 10% ethanol, MDZ pH=3) was “significant discomfort”. In addition, in data set [6] (setting [14]), the Tmax was 20 min and the bioavailability came to 67.5%. For the same molecule, in data set [6], the “Nasal Discomfort” value is on record as 1.0 and the “Nasal Discomfort (maximum)” value is listed as 6.0.
Consider “tetrahydrofurfuryl alcohol polyethyleneglycol ether [GF]”, for which the viable cells entry with MDCKII-WT cells (30 min treatment, GF up to 50 vol %) is “more than 90%”. In addition, in the data set with MDCKII-WT cells (1 h exposure, GF compositions above 30%), the cell viability result is recorded as “marked decease in cell viability”. The same molecule displayed a lethality in the data set on MDCKII-WT cells (2 h exposure, GF compositions equal to or more than 20%) of 100%. The “effect of GF content on transference of DZP through MDCK cell monolayer” value with MDCKII-WT cell monolayer [9] is given as “transference increased with increasing GF content”. In the data set with MDCKII-WT cell monolayer [10] (GF/AB cosolvent mixtures, 0 to 50 vol % GF), the “effect of GF content on permeability of mannitol” value is “permeability of mannitol increases”. The “percentage mass transported of mannitol” value in the data set with MDCKII-WT cell monolayer [10] (all GF/AB cosolvent systems (0-50 vol % GF), t=30 min) was “below 5%”. The TEER values in the data set with MDCKII-WT cell monolayer [11] is on record as > 100 Ω·cm2.
For `O=C1Nc2ccc(Cl)cc2C(c2ccccc2Cl)=NC1O` (stereo not shown) [LZP, lorazepam], the “time of peak plasma concentrations” value in data set [4] (rectal) was 75 min. Moreover, the “lipid-solubility relative to DZP and MDZ” value in [12] was “⅕”. The effective in patients with patients with SE is on record as 60-80%. In data set [8], the “Elimination T½” value is 480 to 1500 min and the “First-pass Effect” value is given as “Low”.
